Our source for the cytotoxicity values is ChEMBL document CHEMBL3507680, “University of Dundee, Gates Library screen for HepG2 cell viability”.

The data set can be described thus: Human HepG2 cell viability assay in 384 well format. The data set is classed as toxicity, cell-based. The following applies: HepG2 cells, read-out: Inhibition. Further details: dose 125 nL, time 70.5 hour; cytotoxicity at 70.5 h: concentration not given beside the values.

Turning to `CC[C@H]1CN2CC[C@H]1C[C@@H]2CNCc1ccc(OC(F)(F)F)cc1`, the cytotoxicity at 70.5 h is -7.22%.

For the compound `CN(C)[C@H]1C[C@@H](Cc2cc(-c3ccc(F)cc3)on2)C1(C)C`, the cytotoxicity at 70.5 h is -0.292%.

For `COc1ccc(CN2C[C@@H]3OCC(=O)N(CC(N)=O)[C@@H]3C2)cc1`, the cytotoxicity at 70.5 h was 2.86%.

For the compound `O=C(c1cccnc1)N1C[C@@H]2OCC(=O)N(Cc3cccnc3)[C@@H]2C1`, the cytotoxicity at 70.5 h is -3.03%.

As for `CC(C)NC(=O)NC[C@H]1C[C@@H]2CCN1C[C@@H]2CN(C)c1ccccc1`, the cytotoxicity at 70.5 h was -0.173%.

`Cc1nn(-c2ccccn2)c(C)c1[C@@H]1C=C[C@@H](NC(=O)NC(C)C)C1`: the cytotoxicity at 70.5 h stood at 0.445%.

On to `CCNC(=O)N1C[C@@H]2OCC(=O)N(Cc3cccnc3)[C@@H]2C1`, for which the cytotoxicity at 70.5 h was -1.41%.

Consider `CC(=O)Nc1ccc([C@@H](O)[C@H]2COCC(=O)N2CC(C)C)cc1`, for which the cytotoxicity at 70.5 h is 1.58%.

`COCC(=O)Nc1ccc([C@@H](O)[C@H]2COCC(=O)N2C)cc1`: the cytotoxicity at 70.5 h was -1.45%.

As for `COC(=O)[C@H]1CN(C(=O)NC(C)C)CCN1C(=O)C1CCCCC1`, the cytotoxicity at 70.5 h is 10.7%.

Take `CC(C)C[C@@H]1N[C@H](C(=O)NCC2CC2)Cc2c[nH]c3cccc1c23`: the cytotoxicity at 70.5 h is 0.485%.

As to `CC(C)(C)C(=O)N[C@H]1C[C@@H](Cc2cc(CN3CCOCC3)on2)C1(C)C`, the cytotoxicity at 70.5 h was -6.62%.

As for `CC(=O)N[C@H]1C[C@@H](c2nc(-c3ccc4c(c3)OCO4)no2)N(C)C1`, the cytotoxicity at 70.5 h worked out at 2.89%.

For `Cc1ccc(S(=O)(=O)Cc2noc([C@@H]3C[C@@H](O)CN3C)n2)cc1`, the cytotoxicity at 70.5 h is -2.56%.

For `c1ccc(-c2nnc([C@H]3CCN(C4CCC4)C3)o2)cc1`, the cytotoxicity at 70.5 h was 0.134%.

Take `COc1ccccc1CN1CC[C@H](c2nnc(-c3cncn3C)o2)C1`: the cytotoxicity at 70.5 h is -1.04%.

As to `c1coc(-c2nnc([C@H]3CCN(Cc4ccc5c(c4)OCO5)C3)o2)c1`, the cytotoxicity at 70.5 h was -6.68%.

As for `O=C1CO[C@H]2CN(Cc3ccc(C(F)(F)F)cc3)C[C@H]2N1`, the cytotoxicity at 70.5 h is -2.56%.

Regarding `CC(C)(C)c1coc([C@@H]2COCCN2Cc2c[nH]cn2)n1`, the cytotoxicity at 70.5 h stood at 2.66%.

For `CN(C)[C@@H]1CO[C@H](CNC(=O)c2cccs2)[C@H]1O`, the cytotoxicity at 70.5 h was -8.01%.

For `CC(=O)N1CCC(N[C@@H]2CO[C@H](CNC(=O)c3cccs3)[C@H]2O)CC1`, the cytotoxicity at 70.5 h is 4.51%.

With `O=C(NC[C@H]1OC[C@@H](NCc2ccccn2)[C@@H]1O)N1CCOCC1`, the cytotoxicity at 70.5 h is -10.1%.

For the compound `O=C1COC[C@H]([C@H](O)c2ccc(NC(=O)c3cccnc3)cc2)N1`, the cytotoxicity at 70.5 h was -5.64%.

On to `O[C@@H]1C[C@@H](c2nc(-c3ccc(OC(F)(F)F)cc3)no2)N(CC2CC2)C1`, for which the cytotoxicity at 70.5 h is -4.09%.

As to `CCNC(=O)NC[C@@H]1C=C(C)[C@H](CC(=O)NCCN(C)C)C[C@H]1C(C)C`, the cytotoxicity at 70.5 h is -0.736%.

For `Cn1cncc1-c1nnc([C@H]2CCN(Cc3cccnc3)C2)o1`, the cytotoxicity at 70.5 h is -2.71%.

Take `Cn1ccnc1CN1C(=O)CO[C@H]2CN(CCCc3ccccc3)C[C@H]21`: the cytotoxicity at 70.5 h was -1.68%.

In the case of `CN(C)[C@@H]1CO[C@H](CNC(=O)c2ccccc2)[C@H]1O`, the cytotoxicity at 70.5 h was -8.77%.

Regarding `CC(=O)N1CCC(N2CCN3C(=O)N(Cc4ccccn4)C[C@H]3C2)CC1`, the cytotoxicity at 70.5 h is -1.05%.

`N#Cc1ccc(C(=O)N2CCOC[C@H](Oc3cnccn3)C2)cc1`: the cytotoxicity at 70.5 h was -0.682%.

As to `COc1ccc(O[C@H]2COCCN(Cc3cccc4c3OCO4)C2)cc1`, the cytotoxicity at 70.5 h came to 3.63%.

Consider `CCNC(=O)NC[C@H]1Cn2c(-c3ccccc3)cnc2CO1`, for which the cytotoxicity at 70.5 h is -3.79%.

In the case of `FC(F)(F)Oc1cccc(CNC[C@H]2Cn3ccnc3CO2)c1`, the cytotoxicity at 70.5 h came to 0.704%.

`CC(C)N1CCOC[C@H]1c1nc(-c2ccncc2)c[nH]1`: the cytotoxicity at 70.5 h was -1.74%.

Turning to `c1cc(-c2c[nH]c([C@@H]3COCCN3CC3CC3)n2)ccn1`, the cytotoxicity at 70.5 h was -1.9%.

For the compound `COC(=O)[C@H]1CN(S(C)(=O)=O)CCN1S(C)(=O)=O`, the cytotoxicity at 70.5 h is -2.09%.

Consider `CN(C)[C@@H]1CO[C@H](CNC(=O)C2CCCC2)[C@H]1O`, for which the cytotoxicity at 70.5 h came to 6.3%.

For `CC(C)N[C@@H]1CO[C@H](CNC(=O)c2cccs2)[C@H]1O`, the cytotoxicity at 70.5 h stood at 1.83%.

As for `CC[C@H]1CN(C(=O)c2cccnc2)CC[C@H]1CC(=O)NC1CC1`, the cytotoxicity at 70.5 h was -4.36%.

Consider `COCC(=O)N1CCN(C(=O)c2cccs2)C[C@H]1C(=O)OC`, for which the cytotoxicity at 70.5 h was found to be 1.41%.

For `O=C(O)C[C@@H]1CCN(C(=O)C2CCCC2)C[C@@H]1CCN1CCCCC1`, the cytotoxicity at 70.5 h is -1.16%.

For `CC(=O)N1CC[C@H]2CC(=O)N(C3CCCCC3)CC[C@H]2C1`, the cytotoxicity at 70.5 h is -2.68%.

As for `CC(C)(O)c1cn(C[C@H]2C[C@@H]3CCN2C[C@@H]3C(=O)N2CCOCC2)nn1`, the cytotoxicity at 70.5 h was -1.36%.

With `CC[C@H]1CN2CC[C@H]1C[C@@H]2CNC(=O)Nc1cccc(C(F)(F)F)c1`, the cytotoxicity at 70.5 h was -3.6%.

For `COC(=O)[C@@H]1CN(C(=O)NC(C)C)CCN1S(=O)(=O)c1ccccc1`, the cytotoxicity at 70.5 h is -2.94%.

For `Cn1nc(-c2cccs2)cc1[C@H]1CN2CC[C@H]1C[C@@H]2CNS(C)(=O)=O`, the cytotoxicity at 70.5 h was -6.43%.

Turning to `Cc1oncc1C(=O)N1CC2CC1(C(=O)N1CCCC1)C2`, the cytotoxicity at 70.5 h was found to be 8.06%.

Take `CN(C)C(=O)C1CCC2(CCN(Cc3ccc4ccccc4n3)CC2)O1` (configuration not stated): the cytotoxicity at 70.5 h is -8.67%.

With `c1coc(CN2CCC3(CC2)COC(COCC2CCOCC2)C3)c1` (configuration not stated), the cytotoxicity at 70.5 h is -12.1%.

As for `CCN1C[C@H]2CCN(Cc3ccncc3)C(=O)[C@@H]2C1`, the cytotoxicity at 70.5 h is -12%.

Take `CN(C)C(=O)CN1CCC2(CCN(C(=O)N3CCCC3)CC2)C1=O`: the cytotoxicity at 70.5 h is -3.29%.

In the case of `CN(C)C(=O)CN1CCC2(CCN(S(C)(=O)=O)CC2)C1=O`, the cytotoxicity at 70.5 h was -0.161%.

Consider `CCN1C(=O)CC[C@]12CC[C@@H](NC(=O)c1cnccn1)CC2`, for which the cytotoxicity at 70.5 h was 12.9%.

Regarding `Cc1cccc(CN2CCC23CCCNC3)n1` (configuration not stated), the cytotoxicity at 70.5 h was -9.59%.

With `CS(=O)(=O)N1C[C@H]2C[C@H](C(=O)N3CCOCC3)[C@@H](C1)O2`, the cytotoxicity at 70.5 h was -6.47%.

Turning to `O=C(CSc1nccc(-c2ccc3c(c2)OCO3)n1)N1CCOCC1`, the cytotoxicity at 70.5 h was -1.22%.

Take `CCn1cc(-c2cc(C(F)F)n3nc(CCC(=O)O)nc3n2)cn1`: the cytotoxicity at 70.5 h is -2.48%.

Consider `Cc1cn(Cc2ccc(F)cc2)nc1N`, for which the cytotoxicity at 70.5 h is -1.4%.

Consider `Cc1ccc(Cn2cc(C)c(N)n2)cc1`, for which the cytotoxicity at 70.5 h was 22.1%.

As to `CCC1(c2ccc(NS(=O)(=O)N(C)C)cc2)CCC(=O)NC1=O` (configuration not stated), the cytotoxicity at 70.5 h was -2.76%.

Consider `Cn1nnnc1SCC1COc2ccccc2O1` (configuration not stated), for which the cytotoxicity at 70.5 h stood at 0.146%.

Consider `O=C1c2cc(Br)cc(Br)c2OCC1(CN1CCCC1)CN1CCCC1`, for which the cytotoxicity at 70.5 h is -1.34%.

As for `CC(=O)c1ccc(OCC(C)O)cc1O` (configuration not stated), the cytotoxicity at 70.5 h is 5.87%.

With `CCOC(=O)COc1ccc(C(C)=O)c(O)c1`, the cytotoxicity at 70.5 h stood at 28.9%.

For the compound `Cn1c(=O)c2cc(C(=O)NCCOCC(F)(F)F)ccc2n(C)c1=O`, the cytotoxicity at 70.5 h is 25.9%.

As for `COc1cc(CNc2cnn(CC(F)F)c2)ccc1O`, the cytotoxicity at 70.5 h was 26.6%.

In the case of `COCc1cc(CNc2cnn(CC(F)F)c2)ccc1OC`, the cytotoxicity at 70.5 h amounted to 1.97%.

In the case of `COc1cccc(CNc2cnn(CC(F)F)c2)c1`, the cytotoxicity at 70.5 h was found to be 3.29%.

On to `COc1ccc(CNc2cnn(CC(F)F)c2)cc1`, for which the cytotoxicity at 70.5 h is -0.452%.

For the compound `CCn1cc(CNCc2ccc(C(=O)OC)cc2)c(C)n1`, the cytotoxicity at 70.5 h is -0.911%.

Turning to `COc1ccc(CNCc2cn(C)nc2C)cc1`, the cytotoxicity at 70.5 h is -2.32%.

On to `COC(=O)N1CC(C)=C(C)CN1C(=O)Nc1ccc(Cl)c(Cl)c1`, for which the cytotoxicity at 70.5 h amounted to 4.31%.

For `Cc1cc(-n2cncn2)n2ncnc2n1`, the cytotoxicity at 70.5 h was -2.11%.

For the compound `NC(=O)c1c[nH]nc1NC(=O)c1ccc(Cl)cc1`, the cytotoxicity at 70.5 h is -3.88%.

For `Cc1c(O)oc(-c2ccc(Br)cc2)nc1=O`, the cytotoxicity at 70.5 h amounted to 53.6%.

Regarding `CCn1cc(S(=O)(=O)N(C)Cc2c(Br)cnn2CC)c(C)n1`, the cytotoxicity at 70.5 h came out at 1.71%.

On to `CCCn1ncc2c(C(=O)Nc3n[nH]c(SC)n3)cc(C3CC3)nc21`, for which the cytotoxicity at 70.5 h was 5.71%.

On to `CNc1cncc(C2CCCN2C(=O)c2ccc3oc(=O)n(C)c3c2)n1` (configuration not stated), for which the cytotoxicity at 70.5 h amounted to 17.9%.

Consider `CNC(=O)[C@@H](c1ccccc1F)N1CCC[C@H]1C(=O)NC1CCCC1`, for which the cytotoxicity at 70.5 h was -5.2%.

Consider `CNC(=O)C1(N2CCC[C@H]2C(=O)NC2CC2)CCCCC1`, for which the cytotoxicity at 70.5 h was -3.89%.

For `CNC(=O)[C@@H](c1ccccc1OC)N1CCC[C@H]1C(=O)NC1CC1`, the cytotoxicity at 70.5 h was -1.71%.

As to `CNC(=O)[C@@H](C1CCCCC1)N1CCC[C@H]1C(=O)N(C)CCN(C)C`, the cytotoxicity at 70.5 h was -4.67%.

For `CNC(=O)[C@@H](CC(C)C)N1CCC[C@H]1C(=O)N(C)Cc1cccnc1`, the cytotoxicity at 70.5 h was -6.49%.

With `CNC(=O)[C@@H](c1ccccc1OC)N1CCC[C@H]1C(=O)NCCN(C)C`, the cytotoxicity at 70.5 h is -5.36%.

As to `Cc1nc(C)c(CNC[C@@]2(COc3cccnc3)C[C@@H](O)[C@@H](O)C2)s1`, the cytotoxicity at 70.5 h was -4.67%.

In the case of `CC(C)NC(=O)CC1CC2(CCN(CC3CC3)CC2)Oc2ccccc21` (configuration not stated), the cytotoxicity at 70.5 h is 15.7%.

Consider `Cn1cccc1C(=O)N1C[C@H]2CN(Cc3cccs3)C[C@H]2C1`, for which the cytotoxicity at 70.5 h was -4.47%.

As to `CO[C@@H]1CCN(C(=O)c2ccsc2)[C@@H]2CN(CC3CC3)C[C@@H]21`, the cytotoxicity at 70.5 h is -4.96%.

`CNC(=O)CC1CC2(CCN(CC3CC3)CC2)Oc2ccccc21` (configuration not stated): the cytotoxicity at 70.5 h is -6.72%.

Turning to `COCC(=O)N1CCC2(CC1)C(=O)N(Cc1cccnc1)CCN2C`, the cytotoxicity at 70.5 h is 28.3%.

As to `CCC(=O)N1CCC2(CC1)C(=O)N(Cc1cccnc1)CCN2C`, the cytotoxicity at 70.5 h was -3.61%.

Regarding `O=C1Nc2ccccc2C12CCN(Cc1ccccn1)CC2`, the cytotoxicity at 70.5 h came to 0.291%.
